Records with an inconclusive call do not appear.

The experiment relates to Drosophila SCA1 polyglutamine model, toxicity suppression. As to the kind of experiment: Polyglutamine toxicity reduction dose response, whole organism Drosophila SCA1 model (AID 1595).

The term EC50 denotes the concentration at which the effect is half-maximal. Regarding `Cc1cc(C(C)(C)C)cc(C)c1CC1=NCCN1`, the EC50 was 0.25 µM.

`CN1CCOC(c2ccccc2)c2ccccc2C1` (centres undefined): the EC50 was 0.05 µM.

As to `C=C1C2CC[C@H]3[C@]4(C)C[C@H](OC5OC(CO)C(OS(=O)(=O)O)C(OS(=O)(=O)O)C5OC(=O)CC(C)C)C[C@@H](C(=O)O)[C@H]4CC[C@]3(C2)[C@H]1O` (some centres undefined), the concentration giving a half-maximal response (EC50) is 0.225 µM.

Take `CCCCCCCCCCCCCCCC(=O)OC/C=C(C)/C=C/C=C(C)/C=C/C1=C(C)CCCC1(C)C`: the EC50 is 0.275 µM.

Regarding `OCC(S)CS` (centres undefined), the EC50 was 0.3 µM.

With `C[C@@H]1O[C@@H](O[C@H]2[C@H](Oc3cc(O)c4c(c3)O[C@H](c3ccc(O)cc3)CC4=O)O[C@H](CO)[C@@H](O)[C@@H]2O)[C@H](O)[C@H](O)[C@H]1O`, the EC50 is 5 µM.

Consider `C[C@@H]1CC2C3CCC4=CC(=O)C=C[C@]4(C)[C@@]3(F)[C@@H](O)C[C@]2(C)[C@@]1(O)C(=O)COP(=O)(O)O` (some centres undefined), for which the EC50 is 0.75 µM.

Turning to `CC(N)CCCC(C)(C)O` (centres undefined), the half-maximal effective concentration (EC50) was 0.05 µM.

As to `N#C/C(=C\c1ccc(O)cc1)C(=O)O`, the EC50 is 0.05 µM.

For the compound `C[N+](C)(C)CCOC(N)=O`, the EC50 is 3 µM.

With `NS(=O)(=O)c1cc(C2(O)NC(=O)c3ccccc32)ccc1Cl` (centres undefined), the EC50 is 5 µM.

On to `CC(=O)OCC(=O)[C@H]1CCC2C3CCC4=CC(=O)CC[C@]4(C)C3CC[C@@]21C` (some centres undefined), for which the EC50 was 3 µM.

Consider `NC(Cc1cc(I)c(Oc2ccc(O)c(I)c2)c(I)c1)C(=O)O` (centres undefined), for which the EC50 was 5 µM.

On to `C[N+](C)(C)CC(=O)[O-]`, for which the EC50 is 3 µM.

The record behind these values is PubChem BioAssay AID1595 (NINDS Approved Drug Screening Program, 2009).
